How the values were obtained:
[1] = tested on: Wistar rats; experiment: In vivo oxidation of [U-14C]palmitate (exhaled 14CO2); design: species or system rat; conditions: 30 mg/kg s.c.
Protocol: Compound (Ia) was tested in normal Wistar rats by two different methods to assess in vivo a) direct effects on fatty acid oxidation by following the conversion of [^14C]-labeled palmitate to ^14CO2 exhaled by the animals and b) effects on total lipid utilization as determined by indirect calorimetry.
a) In vivo oxidation of [U-^14C]palmitate. Male Wistar rats (240-360 g) were given chow food ad libitum. The day before the experiment each animal was singly caged and food was withdrawn 2.5 hours before the experiment. The animals were given [U-^14C]palmitate (5 μCi) dissolved in 500 μl of olive oil by gavage and compound (Ia) (30 mg/kg) or saline (vehicle) by subcutaneous injection. Immediately after receiving [U-^14C]palmitate and compound (Ia) or vehicle, the animals were kept singly in a metabolic chamber during six hours. The chamber was set up to allow quantive recovery of ^14CO2 exhaled by the animals. The chamber consisted of a desiccator with an elevated platform for the rat, an inlet for air at the bottom wall of the vessel. The flow of the air-exchange was controlled by a flow meter connected to a vacuum pump and set to 50 litres/hour. The temperature inside the chamber was kept at 22° C. Exhaled ^14CO2 from the animals was absorbed by a flask containing 500 ml of Carbosorb E (Canberra Packard).

[2] = tested on: Wistar rats; experiment: Lipid utilization by indirect calorimetry; assay type: in vivo, rat
From the text: b) Indirect calorimetry. Substrate utilization can be measured indirectly from respiratory gas exchanges. The method is based on the measurement of oxygen (O2) consumption and carbon-dioxide (CO2) release, both originating from the oxidation of the energetic substrates that progressively release the chemical energy stored in the carbon-hydrogen bonds of carbohydrates, lipids (and proteins). The amounts of carbohydrate and lipid being oxidized in the body at any given time can be calculated from the volumes of 02 consumption and CO2 exhalation by laboratory animals (and humans) in metabolic chambers. For a review of the methodology and the theoretical basis of indirect calorimetry, see Ferrannini, Metabolism, 37, 287-301, 1988.
An established, commercially available metabolic chamber apparatus (Oxymax, columbus Instruments, Ohio) was used to determine the gas exchange of vehicle-treated and compound (Ia)-treated Wistar rats in order to make precise and noninvasive measurements of the changes in the nature of the energetic substrate being oxidized by Wistar rats. Table 5 summarizes the data of the calculated lipid utilization determined for animals treated with two doses of compound (Ia), 10 and 30 mg/kg, administered subcutaneously 30 min. before starting the gas exchange measurements.

CO[C@H]1CCCC[C@@H](c2ccccc2)OC(=O)[C@@H](C)C2(O)O[C@H]([C@@H](C)[C@H](O)[C@H]2OC)[C@@H](C)/C=C/[C@H]1OC [Cpd (Ia), Soraphen A 1-α]
Duration of effect (entire assessment period) [1]: 6 h | Time after administration at which the effect is apparent [1]: approx. 60 min | % increase over vehicle ([1]; 5 min): −15% | Accumulated 14CO2 exhaled ([1]; 5 min): 133 +/− 41 cpm | % increase over vehicle ([1]; 15 min): −30% | Accumulated 14CO2 exhaled ([1]; 15 min): 121 +/− 36 cpm | % increase over vehicle ([1]; 30 min): 17% | Accumulated 14CO2 exhaled ([1]; 30 min): 211 +/− 32 cpm | % increase over vehicle ([1]; 60 min): 41% | Accumulated 14CO2 exhaled ([1]; 60 min): 544 +/− 102 cpm | % increase over vehicle ([1]; 90 min): 40% | Accumulated 14CO2 exhaled ([1]; 90 min): 1440 +/− 90 cpm | % increase over vehicle ([1]; 120 min): 56% | Accumulated 14CO2 exhaled ([1]; 120 min): 2614 +/− 136 cpm | % increase over vehicle ([1]; 150 min): 62% | Accumulated 14CO2 exhaled ([1]; 150 min): 4333 +/− 235 cpm | % increase over vehicle ([1]; 180 min): 51% | Accumulated 14CO2 exhaled ([1]; 180 min): 5729 +/− 397 cpm | % increase over vehicle ([1]; 240 min): 56% | Accumulated 14CO2 exhaled ([1]; 240 min): 9572 +/− 809 cpm | % increase over vehicle ([1]; 300 min): 77% | Accumulated 14CO2 exhaled ([1]; 300 min): 13261 +/− 1.445 cpm | % increase over vehicle ([1]; 360 min): 60% | Accumulated 14CO2 exhaled ([1]; 360 min): 16134 +/− 2.130 cpm | % increase over vehicle ([2]; 10 mg/kg s.c., 33.5 min): 12.6% | Accumulated lipid utilization ([2]; 10 mg/kg s.c., 33.5 min): 0.24 g/kg body weight | % increase over vehicle ([2]; 10 mg/kg s.c., 67 min): 9.6% | Accumulated lipid utilization ([2]; 10 mg/kg s.c., 67 min): 0.49 g/kg body weight | % increase over vehicle ([2]; 10 mg/kg s.c., 100.5 min): 9.8% | Accumulated lipid utilization ([2]; 10 mg/kg s.c., 100.5 min): 0.76 g/kg body weight | % increase over vehicle ([2]; 10 mg/kg s.c., 134 min): 9.8% | Accumulated lipid utilization ([2]; 10 mg/kg s.c., 134 min): 1.03 g/kg body weight | % increase over vehicle ([2]; 10 mg/kg s.c., 167.5 min): 9.2% | Accumulated lipid utilization ([2]; 10 mg/kg s.c., 167.5 min): 1.31 g/kg body weight | % increase over vehicle ([2]; 10 mg/kg s.c., 201 min): 8.4% | Accumulated lipid utilization ([2]; 10 mg/kg s.c., 201 min): 1.61 g/kg body weight | % increase over vehicle ([2]; 10 mg/kg s.c., 234.5 min): 7.8% | Accumulated lipid utilization ([2]; 10 mg/kg s.c., 234.5 min): 1.89 g/kg body weight | % increase over vehicle ([2]; 10 mg/kg s.c., 268 min): 7.9% | Accumulated lipid utilization ([2]; 10 mg/kg s.c., 268 min): 2.17 g/kg body weight | % increase over vehicle ([2]; 10 mg/kg s.c., 301.5 min): 7.7% | Accumulated lipid utilization ([2]; 10 mg/kg s.c., 301.5 min): 2.44 g/kg body weight | % increase over vehicle ([2]; 10 mg/kg s.c., 335 min): 7.2% | Accumulated lipid utilization ([2]; 10 mg/kg s.c., 335 min): 2.73 g/kg body weight | % increase over vehicle ([2]; 10 mg/kg s.c., 368.5 min): 6.3% | Accumulated lipid utilization ([2]; 10 mg/kg s.c., 368.5 min): 3.03 g/kg body weight | % increase over vehicle ([2]; 30 mg/kg s.c., 33.5 min): 28.4% | Accumulated lipid utilization ([2]; 30 mg/kg s.c., 33.5 min): 0.27 g/kg body weight | % increase over vehicle ([2]; 30 mg/kg s.c., 67 min): 19.2% | Accumulated lipid utilization ([2]; 30 mg/kg s.c., 67 min): 0.54 g/kg body weight | % increase over vehicle ([2]; 30 mg/kg s.c., 100.5 min): 14.5% | Accumulated lipid utilization ([2]; 30 mg/kg s.c., 100.5 min): 0.79 g/kg body weight | % increase over vehicle ([2]; 30 mg/kg s.c., 134 min): 13.2% | Accumulated lipid utilization ([2]; 30 mg/kg s.c., 134 min): 1.06 g/kg body weight | % increase over vehicle ([2]; 30 mg/kg s.c., 167.5 min): 12.5% | Accumulated lipid utilization ([2]; 30 mg/kg s.c., 167.5 min): 1.35 g/kg body weight | % increase over vehicle ([2]; 30 mg/kg s.c., 201 min): 11.8% | Accumulated lipid utilization ([2]; 30 mg/kg s.c., 201 min): 1.66 g/kg body weight | % increase over vehicle ([2]; 30 mg/kg s.c., 234.5 min): 11.7% | Accumulated lipid utilization ([2]; 30 mg/kg s.c., 234.5 min): 1.96 g/kg body weight | % increase over vehicle ([2]; 30 mg/kg s.c., 268 min): 12.2% | Accumulated lipid utilization ([2]; 30 mg/kg s.c., 268 min): 2.26 g/kg body weight | % increase over vehicle ([2]; 30 mg/kg s.c., 301.5 min): 12.5% | Accumulated lipid utilization ([2]; 30 mg/kg s.c., 301.5 min): 2.55 g/kg body weight | % increase over vehicle ([2]; 30 mg/kg s.c., 335 min): 12.3% | Accumulated lipid utilization ([2]; 30 mg/kg s.c., 335 min): 2.86 g/kg body weight | % increase over vehicle ([2]; 30 mg/kg s.c., 368.5 min): 11.5% | Accumulated lipid utilization ([2]; 30 mg/kg s.c., 368.5 min): 3.18 g/kg body weight | Duration of effect on lipid oxidation ([2]; 10 and 30 mg/kg s.c.): at least 6 hours
